In patent publication US20090088412A1, “COMPOSITION FOR TREATING CANCER CELLS AND PREPARATION METHOD THEREOF” (KAOHSIUNG MEDICAL UNIVERSITY, priority 2007, published 2009):
≈ marks a conversion by molar mass, not a printed value.

Legend:
MCF-7 = assay: MTT cytotoxicity test, MCF-7; format: cell-based, human; conditions: 72 hours; for IC50 MCF-7: breast cancer cell line
Description: (§1) The bioactivities of the 25 new withanolide compounds of the present invention are further studied. The bioactivities are measured by examining cytotoxicity tests with 5 human cancer cell lines, including MCF-7 and MDA-MB-231 (which are the breast cancer cell lines), Hep G2 and Hep 3B (which are the liver cancer cell line), and A549 (which is lung cancer cell line). In addition, a normal human lung cell line (MRC-5) is served as the control group. All human cancer cell lines come from the American Type Culture Collection. The respective cell lines are cultured in RPMI-1640 medium with 10% (v/v) fetal calf serum, 100 U/ml penicillin and 100 µg/ml streptomycin, and incubated at 37° C. in 5% CO2 atmosphere.
(§2) In the present invention, the cytotoxicity tests are performed with MTT (3-(4,5-dimethyl-thiazol-2-yl)-2,5-diphenyl tetrazolium bromide) method. The five cancer cell lines and the normal cell line (MRC-5) are firstly incubated in a 96-well culture dish with concentrations of 5,000˜10,000 cells/well. In Day 2, the respective incubated cells are added with the withanolide compounds of the present invention and Doxorubicin and are incubated for additional 72 hours. Afterwards, the incubated cells are examined with the MTT method including steps of dissolving the incubated cells in DMSO, and determining the absorbance of each cell line to each compound by a microplate reader in 550 nm to evaluate the cytotoxicity of each compound to each cell line. […] The IC50 represents the concentration of the compound that is required for 50% inhibition of the cell growth, and Doxorubicin serves as the positive control group.

Hep 3B = assay: MTT cytotoxicity test, Hep 3B; format: cell-based, human; conditions: liver cancer cell line, 72 hours
Description: as §1, §2

A-549 = assay: MTT cytotoxicity test, A-549; format: cell-based, human; conditions: 72 hours; for IC50 A-549: lung cancer cell line
Description: as §1, §2

MDA-MB-231 = assay: MTT cytotoxicity test, MDA-MB-231; format: cell-based, human; conditions: 72 hours; for IC50 MDA-MB-231: breast cancer cell line
Description: as §1, §2

Hep G2 = assay: MTT cytotoxicity test, Hep G2; format: cell-based, human; conditions: 72 hours; for IC50 Hep G2: liver cancer cell line
Description: as §1, §2

MRC-5 = assay: MTT cytotoxicity test, normal lung cell line MRC-5; format: cell-based; conditions: 72 hours; for IC50 MRC-5: normal human lung cell line
Description: as §1, §2

Compound | IC50 (MCF-7; Homo sapiens, MCF7, breast cancer cell line) [µg/mL] | IC50 (Hep 3B; Homo sapiens, Hep3B) [µg/mL] | IC50 (A-549; Homo sapiens, A549, lung cancer cell line) [µg/mL] | IC50 (MDA-MB-231; Homo sapiens, MDA-MB-231, breast cancer cell line) [µg/mL] | IC50 (Hep G2; Homo sapiens, HepG2, liver cancer cell line) [µg/mL] | IC50 (MRC-5; MRC5, normal human lung cell line) [µg/mL] | IC50 MCF-7 (MCF-7) [µg/mL] | IC50 Hep 3B (Hep 3B) [µg/mL] | IC50 A-549 (A-549) [µg/mL] | IC50 MDA-MB-231 (MDA-MB-231) [µg/mL] | IC50 Hep G2 (Hep G2) [µg/mL] | IC50 MRC-5 (MRC-5) [µg/mL]
COc1cccc2c1C(=O)c1c(O)c3c(c(O)c1C2=O)C[C@@](O)(C(=O)CO)C[C@@H]3O[C@H]1C[C@H](N)[C@H](O)[C@H](C)O1 [doxorubicin, reference compound] | 0.34 (≈ 0.626 µM) | 0.45 (≈ 0.828 µM) | 0.42 (≈ 0.773 µM) | 0.19 (≈ 0.35 µM) | 0.46 (≈ 0.846 µM) | 0.77 (≈ 1.42 µM) |  |  |  |  |  | 
CC1=C(CO)C(=O)O[C@@H]([C@@H](C)[C@H]2CC[C@H]3[C@@H]4C[C@H]5O[C@]56[C@@H](O)C=CC(=O)[C@]6(C)[C@H]4CC[C@]23C)C1 [withaferin A, reference compound] |  |  |  |  |  |  | 0.05 (≈ 0.106 µM) | 0.06 (≈ 0.127 µM) | 0.02 (≈ 0.0425 µM) | 0.02 (≈ 0.0425 µM) | 0.06 (≈ 0.127 µM) | 0.07 (≈ 0.149 µM)
Tubocapsenolide D [Compound 4] |  |  |  |  |  |  | 6.77 | 2.30 | 4.24 | 6.55 | 4.57 | 4.24
